The text below walks through data of patent publication US20210198277A1, “AMINE-SUBSTITUTED ARYL OR HETEROARYL COMPOUNDS” (Epizyme, Inc., priority 2016, published 2021).

For assay [1], the target named is T1, EHMT2 (Homo sapiens, UniProt Q96KQ7).
T1 construct: host or cells: MDA-MB-231
T1 sequence (Q96KQ7 1-1210): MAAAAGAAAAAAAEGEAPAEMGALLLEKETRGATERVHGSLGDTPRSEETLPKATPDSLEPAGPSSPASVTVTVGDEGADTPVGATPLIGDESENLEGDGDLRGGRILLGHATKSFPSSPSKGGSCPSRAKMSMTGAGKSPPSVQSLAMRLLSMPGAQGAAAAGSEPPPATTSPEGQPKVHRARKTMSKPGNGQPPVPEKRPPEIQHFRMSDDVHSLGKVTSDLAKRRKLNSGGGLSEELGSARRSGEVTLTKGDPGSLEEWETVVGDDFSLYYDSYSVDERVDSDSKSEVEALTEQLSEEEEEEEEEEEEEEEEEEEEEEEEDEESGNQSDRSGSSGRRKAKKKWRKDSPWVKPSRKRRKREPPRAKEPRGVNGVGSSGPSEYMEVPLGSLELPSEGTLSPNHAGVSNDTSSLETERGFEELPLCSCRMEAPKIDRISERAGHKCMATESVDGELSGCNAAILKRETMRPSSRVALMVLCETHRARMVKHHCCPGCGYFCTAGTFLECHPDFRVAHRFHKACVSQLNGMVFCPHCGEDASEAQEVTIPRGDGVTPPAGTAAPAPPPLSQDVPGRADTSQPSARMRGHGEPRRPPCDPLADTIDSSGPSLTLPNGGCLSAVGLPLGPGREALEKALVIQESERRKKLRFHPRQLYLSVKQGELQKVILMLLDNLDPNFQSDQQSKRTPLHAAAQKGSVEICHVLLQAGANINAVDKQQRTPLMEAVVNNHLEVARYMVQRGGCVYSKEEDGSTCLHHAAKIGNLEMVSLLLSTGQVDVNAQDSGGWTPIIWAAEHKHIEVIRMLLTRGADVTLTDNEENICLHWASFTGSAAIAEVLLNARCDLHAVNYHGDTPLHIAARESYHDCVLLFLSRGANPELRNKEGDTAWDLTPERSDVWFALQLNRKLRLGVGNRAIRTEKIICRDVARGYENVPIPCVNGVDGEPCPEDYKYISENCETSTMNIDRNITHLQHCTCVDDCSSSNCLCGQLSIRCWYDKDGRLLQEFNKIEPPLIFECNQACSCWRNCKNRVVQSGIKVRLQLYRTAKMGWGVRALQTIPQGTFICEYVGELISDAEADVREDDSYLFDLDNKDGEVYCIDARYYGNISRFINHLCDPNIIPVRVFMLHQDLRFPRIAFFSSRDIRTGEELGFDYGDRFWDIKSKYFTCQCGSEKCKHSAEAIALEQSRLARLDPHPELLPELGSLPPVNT
Briefly: MDA-MB-231 H3K9me2 in-cell Western assay (EHMT2 ICW). The class given is cell-based. Particulars: Table III; MDA-MB-231 H3K9me2 in-cell Western; read-out: EHMT2 ICW (IC50 μM). The source says:
RPMI/Glutamax medium, Penicillin-Streptomycin, Heat Inactivated Fetal Bovine Serum, and D-PBS were purchased from Life Technologies (Grand Island, N.Y., USA). Odyssey blocking buffer, 800CW goat anti-mouse IgG (H+L) antibody, and Licor Odyssey Infrared Scanner were purchased from Licor Biosciences, Lincoln, Nebr., USA. […] 16% Paraformaldehyde was purchased from Electron Microscopy Sciences, Hatfield, Pa., USA).MDA-MB-231 cells were maintained in complete growth medium (RPMI supplemented with 10% v/v heat inactivated fetal bovine serum) and cultured at 37° C. under 5% CO2. UNC0638 was purchased from Sigma-Aldrich (St. Louis, Mo., USA).
Compound (100 nL) was added directly to 384-well cell plate. MDA-MB-231 cells (ATCC) were seeded in assay medium (RPMI/Glutamax supplemented with 10% v/v heat inactivated fetal bovine serum and 1% Penicillin/Streptomycin, Life Technologies) at a concentration of 3,000 cells per well to a Poly-D-Lysine coated 384-well cell culture plate with 50 μL per well. […] Plates were incubated at room temperature for 30 minutes and then incubated at 37° C., 5% CO2 for additional 48 hours. After the incubation, 50 μL per well of 8% paraformaldehyde (Electron Microscopy Sciences) in PBS was added to the plates and incubated at room temperature for 20 minutes. […] Next, 60 μL per well of Odyssey blocking buffer (Licor Biosciences) was added to each plate and incubated for 1 hour at room temperature. Blocking buffer was removed and 20 μL of monoclonal primary antibody α-H3K9me2 (Abcam) diluted 1:800 in Odyssey buffer with 0.1% Tween 20 (v/v) were added and plates were incubated overnight (16 hours) at 4° C. Plates were washed 5 times with 100 μL per well of wash buffer. Next 20 μL per well of secondary antibody was added (1:500 800CW donkey anti-mouse IgG (H+L) antibody (Licor Biosciences), 1:1000 DRAQ5 (Cell Signaling Technology) in Odyssey buffer with 0.1% Tween 20 (v/v)) and incubated for 1 hour at room temperature. The plates were washed 5 times with 100 μL per well wash buffer then 2 times with 100 μL per well of water. Plates were allowed to dry at room temperature then imaged on a Licor Odyssey Infrared Scanner (Licor Biosciences) which measured integrated intensity at 700 nm and 800 nm wavelengths. Both 700 and 800 channels were scanned.
First, the ratio for each well was determined by:
The average of the ratio values for each well was calculated and used to determine the percent inhibition for each test well in the plate. Control compound was serially diluted three-fold in DMSO for a total of 10 test concentrations beginning at 1 μM. Percent inhibition was calculated as: […]
IC50 curves were generated using triplicate wells per concentration of compound. […] IC50 values were calculated using a non-linear regression (variable slope-four parameter fit model) with by the following formula: […]

For assay [2], the target named is T2, human EHMT2 913-1193 (Homo sapiens, UniProt Q96KQ7).
T2 construct: recombinant purified human EHMT2 913-1193, Viva; purchased Viva
T2 sequence (Q96KQ7 913-1193): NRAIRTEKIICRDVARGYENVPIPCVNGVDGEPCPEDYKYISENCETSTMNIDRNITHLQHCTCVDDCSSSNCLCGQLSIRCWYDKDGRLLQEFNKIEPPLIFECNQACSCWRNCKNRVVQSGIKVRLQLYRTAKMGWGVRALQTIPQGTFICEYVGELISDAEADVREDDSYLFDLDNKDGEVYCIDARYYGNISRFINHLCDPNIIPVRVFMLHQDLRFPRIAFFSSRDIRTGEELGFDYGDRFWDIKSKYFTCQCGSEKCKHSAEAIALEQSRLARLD
The assay is described as follows: EHMT2 enzyme assay on histone peptide substrate (EHMT2 PEP). The class given is biochemical. As for the experimental part: Recombinant purified human EHMT2 913-1193 (55 μM) synthesized by Viva was used for all experiments. Biotinylated histone peptides were synthesized by Biopeptide and HPLC-purified to >95% purity. Streptavidin Flashplates and seals were purchased from PerkinElmer and 384 Well V-bottom Polypropylene Plates were from Greiner. ^3H-labeled S-adenosylmethionine (^3H-SAM) was obtained from American Radiolabeled Chemicals with a specific activity of 80 Ci/mmol. Unlabeled SAM and S-adenosylhomocysteine (SAH) were obtained from American Radiolabeled Chemicals and Sigma-Aldrich respectively. Flashplates were washed in a Biotek ELx-405 with 0.1% Tween. 384-well Flashplates and 96-well filter binding plates were read on a TopCount microplate reader (PerkinElmer). Compound serial dilutions were performed on a Freedom EVO (Tecan) and spotted into assay plates using a Thermo Scientific Matrix PlateMate (Thermo Scientific). Reagent cocktails were added by Multidrop Combi (Thermo Scientific).
General Procedure for EHMT2 Enzyme Assay on Histone Peptide Substrate.
10-point curves of test compounds were made on a Freedom EVO (Tecan) using serial 3-fold dilutions in DMSO, beginning at 2.5 mM (final top concentration of compound was 50 μM and the DMSO was 2%). A 1 μL aliquot of the inhibitor dilution series was spotted in a polypropylene 384-well V-bottom plate (Greiner) using a Thermo Scientific Matrix PlateMate (Thermo Scientific). […] Compounds were incubated for 30 minutes with 40 μL per well of 0.031 nM EHMT2 (recombinant purified human EHMT2 913-1193, Viva) in 1× assay buffer (20 mM Bicine [pH 7.5], 0.002% Tween 20, 0.005% Bovine Skin Gelatin and 1 mM TCEP). […] Reactions were incubated for 60 minutes at room temperature and quenched with 10 μL per well of 400 μM unlabeled SAM, then transferred to a 384-well streptavidin Flashplate (PerkinElmer) and washed in a Biotek ELx-405 well washer with 0.1% Tween after 60 minutes. 384-well Flashplates were read on a TopCount microplate reader (PerkinElmer).

The target of assay [3] is T3, EHMT1 (Homo sapiens, UniProt Q9H9B1).
T3 sequence (Q9H9B1 1-1298): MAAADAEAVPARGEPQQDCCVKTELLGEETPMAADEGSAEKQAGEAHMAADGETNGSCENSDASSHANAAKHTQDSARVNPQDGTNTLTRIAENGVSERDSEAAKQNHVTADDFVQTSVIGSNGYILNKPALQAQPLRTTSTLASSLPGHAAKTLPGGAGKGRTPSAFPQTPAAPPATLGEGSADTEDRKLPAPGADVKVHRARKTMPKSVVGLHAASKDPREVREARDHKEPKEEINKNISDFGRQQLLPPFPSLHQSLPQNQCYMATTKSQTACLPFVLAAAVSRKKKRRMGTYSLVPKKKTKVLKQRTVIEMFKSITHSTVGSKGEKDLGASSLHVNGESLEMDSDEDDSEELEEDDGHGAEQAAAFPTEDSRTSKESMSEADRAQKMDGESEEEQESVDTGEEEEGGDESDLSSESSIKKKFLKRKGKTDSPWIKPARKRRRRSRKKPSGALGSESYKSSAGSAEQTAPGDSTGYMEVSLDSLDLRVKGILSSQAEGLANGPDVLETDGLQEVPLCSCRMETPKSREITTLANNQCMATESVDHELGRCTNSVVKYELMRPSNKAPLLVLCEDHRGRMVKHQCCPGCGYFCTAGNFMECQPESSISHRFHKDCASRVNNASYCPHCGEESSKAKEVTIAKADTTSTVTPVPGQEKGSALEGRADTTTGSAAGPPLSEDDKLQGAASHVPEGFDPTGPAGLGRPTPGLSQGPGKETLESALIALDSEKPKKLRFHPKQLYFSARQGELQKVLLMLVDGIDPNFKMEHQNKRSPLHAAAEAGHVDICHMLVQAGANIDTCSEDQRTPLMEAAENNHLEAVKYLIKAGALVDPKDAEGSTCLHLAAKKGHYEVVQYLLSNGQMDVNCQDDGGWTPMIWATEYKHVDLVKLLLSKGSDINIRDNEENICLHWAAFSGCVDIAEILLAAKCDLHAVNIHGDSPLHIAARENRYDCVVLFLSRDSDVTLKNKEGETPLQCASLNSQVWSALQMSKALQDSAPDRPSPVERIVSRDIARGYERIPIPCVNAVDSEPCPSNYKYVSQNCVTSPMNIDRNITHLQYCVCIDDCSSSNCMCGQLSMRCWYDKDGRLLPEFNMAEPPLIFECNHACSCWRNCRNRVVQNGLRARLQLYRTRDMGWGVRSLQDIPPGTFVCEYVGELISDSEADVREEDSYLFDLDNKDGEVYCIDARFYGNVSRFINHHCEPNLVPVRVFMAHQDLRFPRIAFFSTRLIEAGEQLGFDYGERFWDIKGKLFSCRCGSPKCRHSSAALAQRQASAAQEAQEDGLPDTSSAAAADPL
Briefly: EHMT1 enzyme assay on peptide substrate (EHMT1 PEP). It is filed as biochemical.

[4] abbreviates: Table II, read-out: EHMT1 PEP (IC50 μM).
[5] abbreviates: Table II, read-out: EHMT2 PEP (IC50 μM).

Where two headings read alike, the source gives them in different places. A value given as a limit tells only on which side of the number the result lay.

On to `CNc1ccnc(Nc2ccc(OC)c(OCCCN3CCC3)c2)n1` [Compound 281], for which the IC50 in assay [1] was 0.1 to 1 µM; in assay [2] (Table III, read-out: EHMT2 PEP (IC50 μM)), < 0.1 µM.
For the molecule `CNc1ccnc(Nc2ccc(OC)c(OCCCN3CCCC3)c2)n1` [Compound 399], the IC50 in assay [1] fell in the range of 0.1 to 1 µM.
On to `COc1ccc(Nc2cccn3ncnc23)cc1OCCCN1CCCC1` [Compound 201], for which the IC50 in assay [3] (setting [4]) and in assay [2] (setting [5]) was > 10 µM in each case.
As to `Cc1cc(N(C)C)nc(Nc2ccc(NC(=O)Nc3ccc(Cl)cc3)cc2)n1` [Compound 1117], the IC50 in assay [3] (Table VII, read-out: EHMT1 PEP IC50) is > 10 µM; in assay [2] (Table VII, read-out: EHMT2 PEP IC50) it was 1 to 10 µM.
Take `CCCCNc1ccnc(NCC2CCN(C)CC2)n1` [Compound 87]: the IC50 in assay [3] (setting [4]) and in assay [2] (setting [5]) was 1 to 10 µM each time.
Take `COc1ccc(Nc2ccnc(CNC3CCOCC3)n2)cc1OCCCN1CCCC1` [Compound 190]: the IC50 in assay [3] (setting [4]) and in assay [2] (setting [5]) was 1 to 10 µM each time.
On to `CN1CCC(CNc2nccc(NCCNC(=O)c3ccc4c(c3)CC(=O)N4)n2)CC1` [Compound 101], for which the IC50 was > 10 µM in assay [3] (setting [4]) and 1 to 10 µM in assay [2] (setting [5]).
For `O=C1Cc2cc(C(=O)NCCNc3nccc(NCC4CCNCC4)n3)ccc2N1` [Compound 105], in that order: > 10 µM and 1 to 10 µM.
Consider `COc1ccc(Nc2nccc(NCC3CCNCC3)n2)cc1OCCCC1CCCC1` [Compound 109], for which the IC50 in assay [3] (setting [4]) and in assay [2] (setting [5]) was 1 to 10 µM each time.
For the molecule `CCCCNc1ccnc(NCCCC)n1` [Compound 72], the IC50 in assay [3] (setting [4]) and in assay [2] (setting [5]) was > 10 µM in each case.
For the molecule `CCCCNc1nccc(NCC2CCC(NC(C)=O)CC2)n1` (stereo not drawn) [Compound 69], the IC50 in assay [3] (setting [4]) and in assay [2] (setting [5]) was > 10 µM each time.

For orientation: IC50 means the midpoint of a concentration-inhibition curve.
